Source: PubChem BioAssay AID1259411 (Chemical Carcinogenesis Research Information System (CCRIS), 2018)
Calls of active or inactive are those of the source. How the calls were made is not given here.

Test system: rodent carcinogenicity bioassays, tumor incidence
Assay: CCRIS carcinogenicity studies
Method in brief: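 Archive of carcinogenicity, mutagenicity, tumor promotion and tumor inhibition results drawn from journals, NCI reports and other sources, expert-reviewed; covers 1985-2011 and is no longer updated.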

SMILES: Cc1cc2ncccc2c2nc(N)n(C)c12
- carcinogen call (Species: MOUSE, Strain/Sex: C57BL/6N/FEMALE, Route: ORAL, Dose: 0, 300 PPM IN DIET FOR 92 WK (STUDY DURATION: 92 WK), Tumor Site: Type of Lesion: COLON: ADENOCARCINOMA, CECUM: ADENOCARCINOMA, LIVER: HEPATOCELLULAR ADENOMA, HEPATOCELLULAR CARCINOMA, OR FIBROSARCOMA, Tumor Site: Type of Lesion: COLON: ADENOCARCINOMA, CECUM: ADENOCARCINOMA, LIVER: HEPATOCELLULAR ADENOMA, HEPATOCELLULAR CARCINOMA, OR FIBROSARCOMA): active; positive
- carcinogen call (Species: MOUSE, Strain/Sex: CDF1/FEMALE, Route: ORAL, Dose: 0, 0.04% IN THE DIET FOR STUDY DURATION (STUDY DURATION: LIFESPAN), Tumor Site: Type of Lesion: FORESTOMACH: PAPILLOMA, SQUAMOUS CELL CARCINOMA, LIVER: HEPATOCELLULAR ADENOMA, HEPATOCELLULAR CARCINOMA): active; positive
- carcinogen call (Species: MOUSE, Strain/Sex: CDF1/MALE, Route: ORAL, Dose: 0, 0.04% IN THE DIET FOR STUDY DURATION (STUDY DURATION: LIFESPAN), Tumor Site: Type of Lesion: FORESTOMACH: PAPILLOMA, SQUAMOUS CELL CARCINOMA, LIVER: CHOLANGIOCARCINOMA): active; positive
- carcinogen call (Species: RAT, Strain/Sex: F344/MALE, Route: ORAL, Dose: 0, 0.03% IN DIET (DAILY INTAKE: 3.8 MG) FOR 286 D (STUDY DURATION: 286 D), Tumor Site: Type of Lesion: ZYMBAL GLAND: SQUAMOUS CELL CARCINOMA, ORAL CAVITY: SQUAMOUS CELL CARCINOMA OR SEBACEOUS SQUAMOUS CELL CARCINOMA, COLON:, Tumor Site: Type of Lesion: ZYMBAL GLAND: SQUAMOUS CELL CARCINOMA, ORAL CAVITY: SQUAMOUS CELL CARCINOMA OR SEBACEOUS SQUAMOUS CELL CARCINOMA, COLON:): active; positive
- carcinogen call (Species: RAT, Strain/Sex: F344/MALE, Route: ORAL, Dose: 0, 0.03% IN DIET (DAILY INTAKE: 5.6 MG) FOR 286 D (STUDY DURATION: 286 D), Tumor Site: Type of Lesion: ZYMBAL GLAND: SQUAMOUS CELL CARCINOMA, ORAL CAVITY: SQUAMOUS CELL CARCINOMA OR SEBACEOUS SQUAMOUS CELL CARCINOMA, COLON:, Tumor Site: Type of Lesion: ZYMBAL GLAND: SQUAMOUS CELL CARCINOMA, ORAL CAVITY: SQUAMOUS CELL CARCINOMA OR SEBACEOUS SQUAMOUS CELL CARCINOMA, COLON:): active; positive
- carcinogen call (Species: RAT, Strain/Sex: WISTAR/MALE, Route: INTRAGASTRIC, Dose: 0, 10 MG/KG IN ACIDIFIED WATER 1/D FOR 2 WK (STUDY DURATION: 58 WK), Tumor Site: Type of Lesion: ZYMBAL GLAND: CARCINOMA): active; positive

SMILES: CCOP(=O)(NC(C)C)Oc1ccc(SC)c(C)c1 (stereo not drawn)
- carcinogen call (Species: Mouse, Strain/Sex: CD-1/Female (50/Group), Route: Oral, Dose: 0, 2, 10, 50 ppm of 89.2-90.5% fenamiphos in diet for 20 mo, study duration 20 mo, Dose: 0, 2, 10, 50 ppm of 89.2-90.5% fenamiphos in diet for 20 mo, study duration 20 mo): inactive; negative
- carcinogen call (Species: Mouse, Strain/Sex: CD-1/Male (50/Group), Route: Oral, Dose: 0, 2, 10, 50 ppm of 89.2-90.5% fenamiphos in diet for 20 mo, study duration 20 mo, Dose: 0, 2, 10, 50 ppm of 89.2-90.5% fenamiphos in diet for 20 mo, study duration 20 mo): inactive; negative
- carcinogen call (Species: Rat, Strain/Sex: Strain not specified/Female (50/Group), Route: Oral, Dose: 0, 2, 10, 50 ppm Nemacure (89% fenamiphos) in diet for 2 yr, study duration 2 yr, Dose: 0, 2, 10, 50 ppm Nemacure (89% fenamiphos) in diet for 2 yr, study duration 2 yr): inactive; negative
- carcinogen call (Species: Rat, Strain/Sex: Strain not specified/Male (50/Group), Route: Oral, Dose: 0, 2, 10, 50 ppm Nemacure (89% fenamiphos) in diet for 2 yr, study duration 2 yr, Dose: 0, 2, 10, 50 ppm Nemacure (89% fenamiphos) in diet for 2 yr, study duration 2 yr): inactive; negative

SMILES: COS(C)(=O)=O
- carcinogen call (Species: MOUSE, Route: INTRAPERITONEAL, Tumor Site: Type of Lesion: LUNG): active; positive
- carcinogen call (Species: MOUSE, Route: ORAL, Tumor Site: Type of Lesion: LUNG, THYMUS GLAND): active; positive
- carcinogen call (Species: RAT, Strain/Sex: SPRAGUE-DAWLEY/MALE, Route: INHALATION, Dose: 0, 50 PPM 6 HR/D 5 D/WK FOR 30 D (STUDY DURATION: LIFETIME), Tumor Site: Type of Lesion: NASAL CAVITY: TUMORS): active; positive

SMILES: Cc1ccc2c3c(cccc13)-c1ccccc1-2
- carcinogen call (Species: MOUSE, Strain/Sex: CD-1/FEMALE, Route: INTRAPERITONEAL, Dose: 0, 3.46, 17.3 UMOL (TOTAL DOSE) IN DMSO ADMINISTERED ON DAYS 1,8, AND 15 OF LIFE (STUDY DURATION: 52 WK), Dose: 0, 3.46, 17.3 UMOL (TOTAL DOSE) IN DMSO ADMINISTERED ON DAYS 1,8, AND 15 OF LIFE (STUDY DURATION: 52 WK)): inactive; negative
- carcinogen call (Species: MOUSE, Strain/Sex: CD-1/MALE, Route: INTRAPERITONEAL, Dose: 0, 3.46, 17.3 UMOL (TOTAL DOSE) IN DMSO ADMINISTERED ON DAYS 1,8, AND 15 OF LIFE (STUDY DURATION: 52 WK), Dose: 0, 3.46, 17.3 UMOL (TOTAL DOSE) IN DMSO ADMINISTERED ON DAYS 1,8, AND 15 OF LIFE (STUDY DURATION: 52 WK), Tumor Site: Type of Lesion: LIVER: TUMORS): active; positive

SMILES: CNC(=O)CSP(=S)(OC)OC
- carcinogen call (Species: MOUSE, Strain/Sex: B6C3F1/FEMALE, Route: ORAL, Dose: 0, 250, 500 PPM IN DIET, Dose: 0, 250, 500 PPM IN DIET): inactive; negative
- carcinogen call (Species: MOUSE, Strain/Sex: B6C3F1/MALE, Route: ORAL, Dose: 0, 250, 500 PPM IN DIET, Dose: 0, 250, 500 PPM IN DIET): inactive; negative
- carcinogen call (Species: RAT, Strain/Sex: OSBORNE-MENDEL/FEMALE, Route: ORAL, Dose: 0, 192, 384 PPM IN DIET, TWA, Dose: 0, 192, 384 PPM IN DIET, TWA): inactive; negative
- carcinogen call (Species: RAT, Strain/Sex: OSBORNE-MENDEL/MALE, Route: ORAL, Dose: 0, 155, 310 PPM IN DIET, TWA): inactive; negative
- carcinogen call (Species: RAT, Strain/Sex: WISTAR/FEMALE, Route: ORAL, Dose: 0, 2, 20, 200 PPM IN DIET FOR 2 YR (STUDY DURATION: 2 YR), Dose: 0, 2, 20, 200 PPM IN DIET FOR 2 YR (STUDY DURATION: 2 YR)): inactive; negative
- carcinogen call (Species: RAT, Strain/Sex: WISTAR/MALE, Route: ORAL, Dose: 0, 2, 20, 200 PPM IN DIET FOR 2 YR (STUDY DURATION 2 YR), Dose: 0, 2, 20, 200 PPM IN DIET FOR 2 YR (STUDY DURATION 2 YR)): inactive; negative

SMILES: O=[N+]([O-])c1c2ccccc2cc2c3ccccc3c3ccccc3c12
- carcinogen call (Species: MOUSE, Strain/Sex: B6C3F1/MALE, Route: INTRAPERITONEAL, Dose: 0, 400 NMOL IN 35 µL DMSO ON DAYS 1 (1/7 TOTAL DOSE), 8 (2/7 TOTAL DOSE), AND 15 (4/7 TOTAL DOSE) AFTER BIRTH (STUDY DUR): inactive; negative

SMILES: C[C@H]1C(=O)O[C@@H]2CCN3CC=C(COC(=O)[C@](C)(O)[C@]1(C)O)[C@H]23
- carcinogen call (Species: RAT, Route: ORAL, Tumor Site: Type of Lesion: LIVER): active; positive

SMILES: [Be]=[O]
- carcinogen call (Species: RABBIT, Route: INTRAVENOUS, INTRAMEDULLARY, Tumor Site: Type of Lesion: BONE: OSTEOSARCOMA): active; positive

SMILES: C[N+](C)(C)CCCl
- carcinogen call (Species: MOUSE, Strain/Sex: B6C3F1/FEMALE, Route: ORAL, Dose: 0, 500, 2000 PPM IN DIET, Dose: 0, 500, 2000 PPM IN DIET): inactive; negative
- carcinogen call (Species: MOUSE, Strain/Sex: B6C3F1/MALE, Route: ORAL, Dose: 0, 500, 2000 PPM IN DIET, Dose: 0, 500, 2000 PPM IN DIET): inactive; negative
- carcinogen call (Species: RAT, Strain/Sex: F344/FEMALE, Route: ORAL, Dose: 0, 1500, 3000 PPM IN DIET, Dose: 0, 1500, 3000 PPM IN DIET): inactive; negative
- carcinogen call (Species: RAT, Strain/Sex: F344/MALE, Route: ORAL, Dose: 0, 1500, 3000 PPM IN DIET, Dose: 0, 1500, 3000 PPM IN DIET): inactive; negative

SMILES: [Cr]
- carcinogen call (Species: HUMAN, Route: INHALATION, ORAL, Tumor Site: Type of Lesion: LUNG): active; positive

SMILES: O=C(O)C1=NN(c2ccc(S(=O)(=O)O)cc2)C(=O)C1N=Nc1ccc(S(=O)(=O)O)cc1 (stereo not drawn)
- carcinogen call (Species: MOUSE, Strain/Sex: ICR/FEMALE, Route: DERMAL, Dose: 0, 1 MG IN 0.1 ML DISTILLED WATER 2/WK FOR A MEAN TOTAL DOSE OF 133.4 MG (STUDY DURATION: 18 MO)): inactive; negative
- carcinogen call (Species: MOUSE, Strain/Sex: ICR/MALE, Route: DERMAL, Dose: 0, 1 MG IN 0.1 ML DISTILLED WATER 2/WK FOR A MEAN TOTAL DOSE OF 133.4 MG (STUDY DURATION: 18 MO)): inactive; negative
- carcinogen call (Species: RAT, Strain/Sex: F344/FEMALE, Route: ORAL, Dose: 0, 1, 2% IN DRINKING WATER FOR 104 WK (STUDY DURATION: 112 WK), Dose: 0, 1, 2% IN DRINKING WATER FOR 104 WK (STUDY DURATION: 112 WK)): inactive; negative
- carcinogen call (Species: RAT, Strain/Sex: F344/MALE, Route: ORAL, Dose: 0, 1, 2% IN DRINKING WATER FOR 104 WK (STUDY DURATION: 112 WK), Dose: 0, 1, 2% IN DRINKING WATER FOR 104 WK (STUDY DURATION: 112 WK)): inactive; negative
